From US20050163773A1, “Methods and pharmaceutical compositions for dopaminergic modulation of t-cell adhesion and activity” (priority 2001, published 2005) come the findings set out here.

Test [1] concerns normal human T-cells. The test can be described thus: Membrane potential measurement by flow cytometry, human T-cells. Format: cell-based. The note with it: DPAT 10^−8 M. Here is the method: (§1) Membrane potential measurements by flow cytometry: Purified normal human or mouse antigen-specific T-cells were incubated in serum-free medium (RPMI, ˜1×10^6/ml, 1 hr, 37° C., 10% CO2 humidified incubator) to assure steady state conditions. The cells were then washed, resuspended in normal RPMI, distributed into individual tubes (˜1×10^6/tube), added with 300 nM di-BA-C4(3) oxanol dye (Molecular Probes, Inc., Eugene, Oreg., USA), and 5-15 minutes later added with DPAT (10^−8 M). Alternatively, the human T-cells were resuspended either in normal RPMI, or in rich K^+ RPMI solutions, incubated for 30 min (37° C., 10% CO2), and loaded with 300 nM di-BA-C4(3) oxanol dye. The cell fluorescence was analyzed on the FACSORT at 488 nm.

Test [2] relates to mouse antigen-specific (MBP87-99) T-cells. Put plainly: Membrane potential measurement by flow cytometry, mouse antigen-specific T-cells. Format: cell-based. Conditions: DPAT 10^−8 M; di-BA-C4(3) oxanol dye. The procedure: as §1
In test [3] the test system is SJL/J anti PLP 139-151 T-cells. The test can be described thus: Experimental autoimmune encephalomyelitis (EAE) induced by encephalitogenic T-cells treated ex vivo. Format: in vivo, mouse.
The test system of test [4] is oxazalone-sensitized T-cells. The test can be described thus: Passively transferred delayed type hypersensitivity (DTH) with T-cells treated ex vivo. Format: in vivo, mouse. The procedure: Lymph nodes were removed from oxazalone-sensitized mice, and the T-cell suspension was exposed ex-vivo to increasing concentrations of DPAT (FIG. 9A, DPAT […]-DPAT 10^−6M) as described for FIG. 8 hereinabove. Control T-cells were incubated with medium only (untreated T-cells). The T-cells were then washed, resuspended in PBS and injected intravenously into naive syngeneic mice. The ears of the recipient mice were than challenged with oxazalone, and the degree of ear swelling was measured by micrometer 24 hr later. DTH is expressed as the mean ±SD of ear swelling in units of 10^−2 mm. […] Oxazalone-sensitized T-cells were incubated ex vivo for one hour with either DPAT (10^−8 M, +DPAT) or U-Mal (10^−7 M, +U-Mal), or both. The T-cells were then washed, resuspended in PBS, injected intravenously into normal recipients, and DTH measured as described hereinabove. […] FIGS. 9A and 9B represent two individual experiments, each experimental group consisting of 8 mice.
Passively transferred delayed type hypersenisitivity (DTH): Groups of 6-8 BALB/c female mice (The Jackson Laboratory, Bar Harbor, Mass., USA) were sensitized on the abdominal skin with 200 μt of 2% oxazalone dissolved in acetone/olive oil [4:1 vol/vol)] applied topically. Five days later, lymph nodes were removed from the sensitized mice, and a cell suspension prepared. The cells (3-5×10^6/ml in RPMI, no additional supplements) were than added for […] incubation ([…]. 37° C., 10% CO2 humidified incubator) with either DPAT, U-Mal, or both (in the latter combination the antagonist added 5 minutes before the agonist). The cells were than washed, resuspended in PBS, and injected IV (40×10^6 /mouse) into normal BALB/c recipients. Immediately afterwards the recipient mice were […] with 10 μl of 2% oxazalone in acetone/olive oil, applied topically to each side of the ear. A constant area of the ear was measured immediately before challenge and 24 hr after the challenge with a Mitutoyo engineer's micrometer. The individual measuring the ear swelling was unaware of the identity of the mice groups. The DTH reaction is expressed as the mean±SD (for each group) of the increment of ear swelling 24 hours after inoculation of the oxazalone-sensitized T-cells, in units of 10^−2 mm.

In a further test the test system is IL-10 secretion. The test can be described thus: IL-10 secretion by human peripheral T-cells (sandwich ELISA). Format: cell-based. Conditions: agonist 10^−7 M, 72 hours.
From the text: The results are expressed as pg/ml IL-10. […] Immunostaining is with intracellular anti-IL-10 FITC conjugated (FL-1) and anti-CD4 PE conjugated (FL-2) antibodies, as described in Materials and Methods hereinbelow.
The results are expressed as pg/mi.
(§2) The results are expressed as pg/ml.
as §2, §2

Test [5] relates to normal human T-cells. Put plainly: Proliferation of resting normal human T-cells (CyQuant). Format: cell-based. Conditions: 48 hours. Here is the method:
FIGS. 18A-C depict the proliferation of resting normal human and cultured Jurkat T-cells induced by physiological concentrations of DPAT. […] Numbers of T-cells were evaluated using the CyQuant cell proliferation assay kit (Molecular Probes), according to the manufacturer instructions. FIG. 18A represents a calibration of the CyQuant cell kit, showing the linear relationship between the fluorescent intensity and untreated human T-cell number. Note the similar maximal enhancement of T-cell proliferation with 10^−10M DPAT in purified normal human (18B) and cultured Jurkat T-cells (FIG. 18C).

Test [6] concerns resting human peripheral T-cells. The test can be described thus: Gene expression, Atlas human cDNA expression array. Format: cell-based. The note with it: DPAT 10 nM, 24 hours. Here is the method:
Poly A+RNA was extracted from human T-lymphocytes before and after treatment with 10 nM DPAT for 24 hours, using the Atlas Pure Total RNA Labeling System (Clontech Laboratories, Inc. Palo Alto, Calif.) according to manufacturers recommendations. […] Hybridizations to the Atlas Human cDNA Expression Arrays membranes (Catalog No. 1.2 KIII (7850-1) and III (7855-1), Clontech Laboratories) were performed by Clonetech Laboratories, as described in the user manual, and the expression pattern of up and down regulated genes was visualized by autoradiography.
Poly A+ RNA was prepared from both DPAT- treated and untreated cells and reverse transcribed to ^32P-labeled cDNA. Using an Atlas human cDNA expression array (i.e. a positively charged nylon membrane spotted with 1200 different human cDNAs) for identification of effected genes, the reverse transcribed products were characterized by hybridization to the atlas membranes. The differential pattern of expression between untreated cells and DPAT-treated cells was visualized by autoradiography, and quantified by densitometry. (FIGS. 20A and 20B). […] This member of the ovalbumin family of serine protease inhibitors is expressed at elevated levels in patients with acute myeloid leukemia and chronic myelomonocytic leukemia, inhibits TNF alpha-induced cell death, and has been linked to the regulation of protease activities in early hematopoiesis (Riewald, M et al Blood 1998;91:1256-62 and Schleef R R and Chuang T L J Biol Chem 2000;275:26385-9).

The subject of test [7] is Bomapin (protease inhibitor 10, PI 10). Put plainly: RT-PCR analysis of Bomapin mRNA in peripheral T-cells. Conditions: DPAT 10 nM; not shown. Format: cell-based, human.
In test [8] the test system is normal human T-cells. The test can be described thus: T-cell adhesion assay (adhesion of human T-cells to fibronectin).
Experimental: T-cell adhesion assay: In the majority of the experiments, adhesion of purified normal human T-cells to fibronectin was assayed with radioactively labeled T-cells as follows: normal human T-cells, purified from a fresh blood sample, were labeled with Na2[^51CrO4], washed, and resuspended in adhesion medium (RPMI-1640 supplemented with 2% BSA, 1 mM Ca^++, 1 mM Mg^++, 1% sodium pyruvate, 1% glucose, and 1% HEPES buffer). The cells were then pre-treated (30 min., 37° C.) with DPAT, and added to fibronectin coated (1 μg/well; Sigma Chemicals, St. Louis, Mo.) microtiter flat-bottomed 96 well plates (1×10^5 cells/100 μl/well). The plates were placed in a humidified incubator (37° C., 30 min., 10% CO2), and than washed thoroughly several times with PBS, to remove non-adherent T-cells. The adherent T-cells were lysed with 1% Tween 20 in 1N NaOH, and the radioactivity in the resulting supernatants was determined in a γ-counter. For each experimental group, results were expressed as the mean CPM±SD of bound T-cells from quadruplicate wells. DPAT-treated T-cell adhesion to BSA-(rather than fibronectin) coated wells, and untreated T-cell adhesion to fibronectin coated wells, were the standard negative controls.
Non-radioactive T-cell adhesion assays: Alternatively, T-cell adhesion assays were performed with non-radioactively labeled cells, differing from the above protocol only in the final detection steps which were performed as follows: After the final washing of the adhesion plates and removal of the non adherent cells, the microtiter wells were supplemented with lysis and substrate solution (60 μl/well of: 0.5% Triton X-100 in water mixed with an equal volume of 7.5 mM p-nitrophenol-N-acetyl-β-D-glucosaminide, (Sigma Chemicals, St. Louis, Mo.) in 0.1M citrate buffer pH=5.0). The plates were then incubated (˜18hr) in a CO2-free 37° C. incubator, supplemented with stop solution (90 μl/well of 50 mM glycine, (Sigma Chemicals, St. Louis, Mo.) pH=10.4 containing 5 mM EDTA), and the optical density was measured at 405 nm in a standard Elisa reader.

Molecules are shown by their SMILES. Values joined by “and” are separate entries in the source; they are usually repeats but may differ in a detail not shown here. Equal values may be shown once.

Consider `CCCN(CCC)C1CCc2ccc(O)cc2C1` (stereo not drawn) [DPAT, 7-Hydroxy-DPAT], for which the “level of depolarization, comparable extracellular K^+ concentration” value in the test with normal human T-cells [1] was around 20 mM. The “depolarization of normal human T-cells” value in the test with normal human T-cells [1] (di-BA-C4(3) oxanol dye) was “clear depolarization”. In addition, in the test with normal human T-cells [1] (from a resting potential of ˜48 mV), the “shift of membrane potential” value is around 6 mV. Also, the “depolarization of mouse antigen specific T-cells” value in test [2] was “clear depolarization”. The “severity of EAE in recipient mice” value in test [3] (T-cells incubated 1 hour with DPAT 10^−8 M ex vivo, IV into naive SJL/J mice, documented 5-12 days later) is “significantly reduced the severity”. In [3] (mice injected with DPAT-treated T-cells, four independent experiments), the “percentage of mice developing EAE, individual experiments” value is 83% and 60% (2×) and 80%. Moreover, the “percentage of mice developing EAE, mean of four experiments” value in test [3] (mice injected with DPAT-treated T-cells, p<0.01 vs untreated T-cells) was 70%. For the same compound, in test [4] (DPAT 10^−8 M ex vivo, 1 hr, ear swelling 24 hr after challenge), the “DTH (ear swelling) caused by oxazalone-sensitized T-cells” value is “significantly reduced”. Also, the “DTH suppression at higher and lower concentrations” value in test [4] (DPAT concentrations other than 10^−8 M) is “either less or not at all effective”. The “reduction of DTH” value in test [4] (DPAT ex vivo, ear swelling 24 hr after challenge) was above 60%. Further, in the test on IL-10 secretion, the “induction of IL-10 secretion by receptor-specific Dopamine agonists” value was “induced by the D2 and D3”. In addition, the “DPAT concentration of maximal enhancement of proliferation, normal human T-cells” value in the test on normal human T-cells [5] was 10^−10 M. For the same compound, the “proliferation of normal human T-cells relative to untreated cells” value in the test with normal human T-cells [5] (DPAT 10^−8 M to 10^−10 M) is listed as “up to 5 times that of untreated cells”. Also, in [6], the “down-regulation of gene expression” value is given as “down-regulated the expression of others”; the “expression of Lupus LA protein and Cathepsin E precursor” value is “induced expression of Lupus LA protein and Cathepsin E precursor”; the “expression of the serine protease inhibitor Bomapin” value was “induction of expression”; the “over expression of mRNA (upregulated genes)” value is listed as “induced the over expression of mRNA encoding for several genes”. The “abundance of Bomapin transcripts” value in test [7] was “increased abundance of Bomapin transcripts”. In addition, the “DPAT-treated T-cell adhesion to BSA-coated wells” value with normal human T-cells [8] (DPAT 10 nM, BSA- instead of fibronectin-coated wells (negative control)) was below 6%. In the test with normal human T-cells [8] (DPAT 10^−8 M, washed before seeding), the “adhesion when T-cells or fibronectin-coated wells were transiently exposed to DPAT” value is given as “significant adhesion of T-cells to fibronectin was evident only if the T-cells”. Further, the “optimum concentration for induction of T-cell adhesion to fibronectin” value in the test on normal human T-cells [8] (dose dependence, human T-cells) stood at 10 nM.
